Patent US20250339531A1, “DUX4 POLYPEPTIDES AND NUCLEIC ACIDS FOR TREATING INFLAMMATORY AND AUTOIMMUNE CONDITIONS” (Fred Hutchinson Cancer Center, priority 2021, published 2025)
“Also recorded” adds a separate entry of the source.

Legend:
Format in all cases: cell-based, human
[1] = tested on: interferon-stimulated genes IFIH1, ISG20, CXCL9, and CD74; test: IFNG induction of interferon-stimulated genes, RT-qPCR in MB135 cells with doxycycline-inducible transgenes; details: for suppression of IFNG induction of ISGs (IFIH1, ISG20, CXCL9, CD74): MB135 cells, doxycycline-induced transgene, continuous protocol, IFNG 16 h
Protocol: (§1) All myoblast experiments were conducted in immortalized MB135 or MB200 myoblast cell lines (isolated from a control or FSHD2 subject, respectively cultured in Ham's F-10 Nutrient Mix (Gibco) supplemented with 15% fetal bovine serum (Hyclone), 100 U/100 μg/ml penicillin/streptomycin (Gibco), 1 μM dexamethasone (Sigma), and 10 ng/ml recombinant human basic fibroblast growth factor (PeproTech). To differentiate the myoblasts to myotubes, media was changed to DMEM supplemented with 10 μg/ml insulin (Sigma) and 10 μg/ml transferrin (Sigma). Cell lines containing doxycycline-inducible transgenes were additionally cultured with 2 μg/mL puromycin (Sigma). Transgenes were induced with 1 μg/mL of doxycycline (Sigma) for 4 hours prior to other treatments for a total of 20 hrs. The Kitra-SRS cells (RRID:CVCL_YI69) were provided by Dr. H. Otani and Osaka University (Nakai et al., 2019) and were cultured in DMEM supplemented with 10% fetal bovine serum (Hyclone) and 100 U/100 μg/ml penicillin/streptomycin (Gibco). Biological replicates consisted of independent but parallel experiments, such as simultaneously stimulating three cell culture plates with IFNγ. Technical replicates consisted of repeat measurements of the same biological sample, such as loading the same biological sample in triplicate for analysis by RT-qPCR.
(§2) Myoblasts were transfected with either (final concentrations) 10 μM 2′,3′-cGAMP (Sigma Aldrich), 2 μg/mL poly(I:C) (Invitrogen), or 1 μg/mL 3′ppp-dsRNA RIG-I ligand (Dan Stetson Lab, UW) using Lipofectamine 2000 according to manufacturer's protocol, or were stimulated with 1000U IFNβ (PeproTech) or 200 ng/ml IFNγ (R+D Systems) by addition directly to cell culture medium. After 16 hours of immune stimulation, RNA was collected from cells using the NucleoSpin RNA Kit (Macherey-Nagel) according to manufacturer's instructions. RNA samples were quantified by nanodrop and 1 μg of RNA per sample was treated with DNase I Amplification Grade (Thermo Fisher), and then synthesized into cDNA using the Superscript IV First-Strand Synthesis System, including oligo dT primers (Invitrogen). qPCR was run in 384-well plates on an Applied Biosystems QuantStudio 6 Flex Real-Time PCR System (ABI) and analyzed in Microsoft Excel.

ISG induction by IFNG = test: RNA-seq of IFNG-induced genes in MB135 cells; details: doxycycline + IFNG; for IFNG-induced genes whose induction was suppressed more than 2-fold (percent) / IFNG-induced genes whose induction was suppressed more than 4-fold (percent): genes induced by IFNG (log 2 fold-change >3)
Protocol: RNA was extracted as described above from untreated, doxycycline-treated, IFNγ-treated, or doxycycline- and IFNγ-treated samples. RNA was submitted to the Fred Hutchinson Cancer Research Center Genomics Core for library preparation using the TruSeq3 Stranded mRNA kit (Illumina) followed by size and quality analysis by Tapestation (Agilent). Libraries were sequenced on a NextSeq P2-100 (Illumina).
Sequencing analysis was performed using R version 4.0.3 (R Core Team, 2020). Sequencing reads were trimmed using Trimmomatic (version 0.39) (Bolger et al., 2014, Trimmomatic: a flexible trimmer for Illumina sequence data. Bioinformatics 30, 2114-2120), and aligned to the Homo sapiens GRCh38 reference genome with the Rsubread aligner (Liao et al., 2019, The R package Rsubread is easier, faster, cheaper and better for alignment and quantification of RNA sequencing reads. Nucleic Acids Res 47, e47). Gene counts were analyzed using featureCounts (v2.0.1) (Liao et al., 2019, supra) and the Gencode v35 annotation file. Normalization and differential expression analysis were done with DESeq2 (v1.26.0) (Love et al., 2014, Moderated estimation of fold change and dispersion for RNA-seq data with DESeq2. Genome Biol 15, 550).

ZSCAN4 = test: Activation of DUX4 target gene ZSCAN4, RT-qPCR; details: MB135 cells ± doxycycline
Protocol: as §1, §2

MEL375 cells = test: IFNG-induced MHC class I in MEL375 melanoma cells (immunoblot, FACS)
Protocol: Expression of DUX4-CTD fragment suppresses interferon-induced MHC Class I expression and requires intact (L)LxxL(L) motifs. Human melanoma MEL375 cells were transduced with doxycycline inducible vectors expressing the 3×Flag-nls-tagged DUX4 CTD-154-424 (iDUX4-CTD) (SEQ ID NOS: 8-9) or the similar constructs with a mutation in the first (L)LxxL(L) motif and a deletion of the second (L)LxxL(L) motif (iDUX4-mL1dL2) (SEQ ID NOS: 10-11). Cells were treated with doxycycline (1 μg/ml) for four hours followed by the addition of interferon-gamma treatment for 16 hrs (50 ng/ml).

[2] = 113 genes induced by IFNG (log 2 fold-change >3)

Row | Substance | suppression of IFNG induction of ISGs (IFIH1, ISG20, CXCL9, CD74) [1] | suppression of IFNG induction of ISGs (IFIH1, ISG20, CXCL9, CD74) ([1]; listed as iDUX4-CA) | IFNG-induced genes whose induction was suppressed more than 2-fold (number) (ISG induction by IFNG; [2]) [genes] | IFNG-induced genes whose induction was suppressed more than 4-fold (number) (ISG induction by IFNG; [2]) [genes] | IFNG-induced genes whose induction was suppressed more than 2-fold (percent) (ISG induction by IFNG) [%] | IFNG-induced genes whose induction was suppressed more than 4-fold (percent) (ISG induction by IFNG) [%] | transcriptional activation of DUX4 target gene ZSCAN4 (ZSCAN4) | transcriptional activation of DUX4 target gene ZSCAN4 (ZSCAN4; listed as iDUX4-CA) | transcriptional activation of DUX4 target gene ZSCAN4 (ZSCAN4; listed as wild-type DUX4) | suppression of MHC class I proteins in MEL375 cells, pulse protocol (MEL375 cells; Mel375iDUX4) | suppression of RNA induction of GBP1, IDO1, CXCL10 by IFNG ([1]; MB135-iDUX4-CTD cells used for STAT1 ChIP) | suppression of IFNG induction of ISGs (IFIH1, ISG20, CXCL9, CD74) ([1]; listed as iDUX4-CTD) | MHC surface protein expression by FACS (MEL375 cells; MEL375 cells, doxycycline then IFNG) | suppression of IFNG-induced MHC class I proteins in MEL375 cells (MEL375 cells; doxycycline 1 μg/ml 4 h then IFNG 50 ng/ml 16 hrs)
1 | DUX4: human DUX4 protein SEQ ID NO:3 expressed from doxycycline inducible codon altered transgene SEQ ID NO:2 | blocks induction of ISGs IFIH1 and ISG20 by IFNG and IFNB1; also recorded: robustly blocked | suppresses IFNG induction of all for ISGs | 102 | 76 | 90 | 67 | strongly induced | robust activator of its target gene ZSCAN4 | Only the wild-type DUX4 shows transcriptional activation of its target gene | prolonged suppression of MHC class I proteins in the MEL375 melanoma cell line | – | – | – | –
2 | longCTD: 3×FLAG tag and nls in frame with carboxyterminal 271 amino acids of DUX4 (aa154-424), SEQ ID NOS: 8-9 | sufficient to block most or all ISG induction by IFNG; also recorded: suppresses three of the four IFNG-induced genes | – | – | – | 90 | 52 | transcriptionally silent | – | – | – | robustly suppressed the RNA induction by IFNG | equally suppressed activation of ISGs | decreased MHC surface protein expression | suppresses IFNG induction of MHC proteins
